Reference: patent US20070049593A1 (priority 2004, published 2007)
pIC50: −log10 of the molar value. Counter-ions that a name gives are not always drawn.

Target: T1, HCV polymerase (Hepatitis C virus genotype 1b, UniProt P26663)
T1 construct: a region encoding NS5B (J Virol 1991 March, 65(3), 1105-13, 544 amino acids after deletion of 47 amino acids on the C-terminal); 6xHis (C); made in house; host or cells: Escherichia coli
Assay: biochemical
Parameters: species or system HCV BK strain
Source text: The evaluation of the HCV polymerase inhibitory activity of the compound of the present invention is explained in the following. This polymerase is an enzyme coded for by the non-structural protein region called NS5B on the genome RNA of HCV (EMBO J., 15:12-22, 1996).
Using, as a template, a cDNA clone corresponding to the full length genome RNA of HCV BK strain obtained from the blood of a patient with hepatitis C, a region encoding NS5B (J Virol 1991 March, 65(3), 1105-13, 544 amino acids after deletion of 47 amino acids on the C-terminal) was amplified by PCR. The objective gene was prepared by adding a 6 His tag {base pair encoding 6 continuous histidine (His)}to the 3′ end thereof and transformed to Escherichia coli. The Escherichia coli capable of producing the objective protein was cultured. The obtained cells were suspended in a buffer solution and crushed in a microfluidizer.
Using a synthetic primer designed based on the sequence of HCV genomic 3′ untranslated region, a DNA fragment (148 bp) containing polyU and 3′X sequence was entirely synthesized and cloned into plasmid pBluescript SK II(+) (Stratagene). The cDNA encoding full length NS5B, which was prepared in i) above, was digested with restriction enzyme KpnI to give a cDNA fragment containing the nucleotide sequence of from the restriction enzyme cleavage site to the termination codon. This cDNA fragment was inserted into the upstream of 3′ untranslated region of the DNA in pBluescript SK II(+) and ligated. The about 450 bp inserted DNA sequence was used as a template in the preparation of substrate RNA.
RNA was synthesized (37° C., 3 hr) by run-off method using this purified DNA as a template, a promoter of pBluescript SK II(+), MEGAscript RNA synthesis kit (Ambion) and T7 RNA polymerase. DNase I was added and the mixture was incubated for 1 hr. The template DNA was removed by decomposition to give a crude RNA product.
A test substance (compound of the present invention) and a reaction mixture (30 μl) having the following composition were reacted at 25° C. for 90 min.
10% Trichloroacetic acid at 4° C. and 1% sodium pyrophosphate solution (150 μl) were added to this reaction mixture to stop the reaction. The reaction mixture was left standing in ice for 15 min to insolubilize RNA. This RNA was trapped on a glass filter (Whatman GF/C and the like) upon filtration by suction. This filter was washed with a solution containing 1% trichloroacetic acid and 0.1% sodium pyrophosphate, washed with 90% ethanol and dried. A liquid scintillation cocktail (Packard) was added and the radioactivity of RNA synthesized by the enzyme reaction was measured on a liquid scintillation counter.
The HCV polymerase inhibitory activity (IC50) of the compound of the present invention was calculated from the values of radioactivity of the enzyme reaction with and without the test substance.
Reaction mixture: HCV polymerase (0.5 μg/ml) obtained in i), substrate RNA (5 μg/ml) obtained in ii), ATP (50 μM), GTP (50 μM), CTP ([…]), UTP (2 μM), [5,6-^3H]UTP (46 Ci/mmol (Amersham), 1 μCi) 20 mM Tris-HCl (pH 7.5), EDTA (1 mM), MgCl2 (5 mM), NaCl (50 mM), DTT (1 mM), BSA (0.01%)

T1 sequence (P26663 2420-2963): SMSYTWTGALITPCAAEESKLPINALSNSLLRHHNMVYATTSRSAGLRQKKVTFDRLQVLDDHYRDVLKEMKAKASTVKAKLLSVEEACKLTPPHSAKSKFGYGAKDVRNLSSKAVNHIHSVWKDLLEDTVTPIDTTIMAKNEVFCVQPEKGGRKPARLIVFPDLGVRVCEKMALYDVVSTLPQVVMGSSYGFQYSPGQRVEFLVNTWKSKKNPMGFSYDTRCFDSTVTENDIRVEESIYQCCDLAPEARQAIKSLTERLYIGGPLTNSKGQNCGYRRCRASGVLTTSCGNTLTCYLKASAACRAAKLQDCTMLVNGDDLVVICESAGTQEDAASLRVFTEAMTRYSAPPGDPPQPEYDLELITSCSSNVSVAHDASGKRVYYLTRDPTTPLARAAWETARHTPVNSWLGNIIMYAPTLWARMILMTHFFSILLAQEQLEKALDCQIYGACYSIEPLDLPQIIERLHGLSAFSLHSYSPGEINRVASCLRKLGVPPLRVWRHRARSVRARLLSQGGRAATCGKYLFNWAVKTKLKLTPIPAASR

SMILES	pIC50
O=C(O)c1ccc2c(C3CCCCC3)c3n(c2c1)CCNc1ccccc1-3 [Example 1-3, 13-cyclohexyl-6,7-dihydro-5H-benzo[5,6][1,4]diazepino[7,1-a]indole-10-carboxylic acid monohydrochloride]	> 7.00
O=C(O)c1ccc2c(C3CCCCC3)c3n(c2c1)CCN(CC(=O)N1CCSCC1)c1ccccc1-3 [Example 1-7, 13-cyclohexyl-5-[2-oxo-2-(thiomorpholin-4-yl)ethyl]-6,7-dihydro-5H-benzo[5,6][1,4]diazepino[7,1-a]indole-10-carboxylic acid monohydrochloride]	> 7.00
O=C(O)c1ccc2c(C3CCCCC3)c3n(c2c1)CCN(CCN1CCSCC1)c1ccccc1-3 [Example 1-9, 13-cyclohexyl-5-[2-(thiomorpholin-4-yl)ethyl]-6,7-dihydro-5H-benzo[5,6][1,4]diazepino[7,1-a]indole-10-carboxylic acid dihydrochloride]	> 7.00
O=C(O)c1ccc2c(C3CCCCC3)c3n(c2c1)CCN(CCN1CCCCC1)c1cc(Cl)ccc1-3 [Example 1-14, 3-chloro-13-cyclohexyl-5-[2-(piperidin-1-yl)ethyl]-6,7-dihydro-5H-benzo[5,6][1,4]diazepino[7,1-a]indole-10-carboxylic acid dihydrochloride]	> 7.00
O=C(O)c1ccc2c(C3CCCCC3)c3n(c2c1)CCN(CCN1CCCCC1)c1ccc(F)cc1-3 [Example 1-18, 13-cyclohexyl-2-fluoro-5-[2-(piperidin-1-yl)ethyl]-6,7-dihydro-5H-benzo[5,6][1,4]diazepino[7,1-a]indole-10-carboxylic acid dihydrochloride]	> 7.00
CC(=O)N1CCn2c(c(C3CCCCC3)c3ccc(C(=O)O)cc32)-c2ccccc21 [Example 1-19, 5-acetyl-13-cyclohexyl-6,7-dihydro-5H-benzo[5,6][1,4]diazepino[7,1-a]indole-10-carboxylic acid]	6.00 to 7.00
CN1CCn2c(c(C3CCCCC3)c3ccc(C(=O)O)cc32)-c2ccccc21 [Example 1-20, 13-cyclohexyl-5-methyl-6,7-dihydro-5H-benzo[5,6][1,4]diazepino[7,1-a]indole-10-carboxylic acid]	> 7.00
CN(C)C(=O)CN1CCn2c(c(C3CCCCC3)c3ccc(C(=O)O)cc32)-c2ccccc21 [Example 1-21, 13-cyclohexyl-5-dimethylcarbamoylmethyl-6,7-dihydro-5H-benzo[5,6][1,4]diazepino[7,1-a]indole-10-carboxylic acid]	> 7.00
O=C(O)c1ccc2c(C3CCCCC3)c3n(c2c1)CCN(Cc1ccccc1)c1ccccc1-3 [Example 1-22, 5-benzyl-13-cyclohexyl-6,7-dihydro-5H-benzo[5,6][1,4]diazepino[7,1-a]indole-10-carboxylic acid]	> 7.00
CC(C)N1CCn2c(c(C3CCCCC3)c3ccc(C(=O)O)cc32)-c2ccccc21 [Example 1-23, 13-cyclohexyl-5-isopropyl-6,7-dihydro-5H-benzo[5,6][1,4]diazepino[7,1-a]indole-10-carboxylic acid monohydrochloride]	> 7.00
O=C1Cn2c(c(C3CCCCC3)c3ccc(C(=O)O)cc32)-c2ccccc2N1 [Example 1-24, 13-cyclohexyl-6-oxo-6,7-dihydro-5H-benzo[5,6][1,4]diazepino[7,1-a]indole-10-carboxylic acid]	> 7.00
O=C(CN1CCn2c(c(C3CCCCC3)c3ccc(C(=O)O)cc32)-c2ccccc21)NCc1ccccc1 [Example 1-25, 5-(benzylcarbamoylmethyl)-13-cyclohexyl-6,7-dihydro-5H-benzo[5,6][1,4]diazepino[7,1-a]indole-10-carboxylic acid]	> 7.00
O=C(O)c1ccc2c(C3CCCCC3)c3n(c2c1)CCN(CC(=O)N1CCOCC1)c1ccccc1-3 [Example 1-26, 13-cyclohexyl-5-[2-(morpholin-4-yl)-2-oxoethyl]-6,7-dihydro-5H-benzo[5,6][1,4]diazepino[7,1-a]indole-10-carboxylic acid]	> 7.00
O=C(O)c1ccc2c(C3CCCCC3)c3n(c2c1)CCN(CCN1CCOCC1)c1ccccc1-3 [Example 1-27, 13-cyclohexyl-5-[2-(morpholin-4-yl)ethyl]-6,7-dihydro-5H-benzo[5,6][1,4]diazepino[7,1-a]indole-10-carboxylic acid dihydrochloride]	> 7.00
COc1ccc2c(c1)N(CC(=O)N(C)C)CCn1c-2c(C2CCCCC2)c2ccc(C(=O)O)cc21 [Example 1-28, 13-cyclohexyl-5-dimethylcarbamoylmethyl-3-methoxy-6,7-dihydro-5H-benzo[5,6][1,4]diazepino[7,1-a]indole-10-carboxylic acid]	> 7.00
O=C(O)c1ccc2c(C3CCCCC3)c3n(c2c1)CCN(CC(=O)N1CCCCC1)c1ccccc1-3 [Example 1-29, 13-cyclohexyl-5-[2-oxo-2-(piperidin-1-yl)ethyl]-6,7-dihydro-5H-benzo[5,6][1,4]diazepino[7,1-a]indole-10-carboxylic acid]	> 7.00
CCN1CCN(C(=O)CN2CCn3c(c(C4CCCCC4)c4ccc(C(=O)O)cc43)-c3ccccc32)CC1 [Example 1-30, 13-cyclohexyl-5-[2-(4-ethylpiperazin-1-yl)-2-oxoethyl]-6,7-dihydro-5H-benzo[5,6][1,4]diazepino[7,1-a]indole-10-carboxylic acid dihydrochloride]	> 7.00
CN(C)C(=O)N1CCn2c(c(C3CCCCC3)c3ccc(C(=O)O)cc32)-c2ccccc21 [Example 1-31, 13-cyclohexyl-5-dimethylcarbamoyl-6,7-dihydro-5H-benzo[5,6][1,4]diazepino[7,1-a]indole-10-carboxylic acid]	6.00 to 7.00
O=C(O)c1ccc2c(C3CCCCC3)c3n(c2c1)CCN(CCN1CCCCC1)c1ccccc1-3 [Example 1-32, 13-cyclohexyl-5-[2-(piperidin-1-yl)ethyl]-6,7-dihydro-5H-benzo[5,6][1,4]diazepino[7,1-a]indole-10-carboxylic acid dihydrochloride]	> 7.00
O=C(CN1CCn2c(c(C3CCCCC3)c3ccc(C(=O)O)cc32)-c2ccccc21)NCc1ccccn1 [Example 1-33, 13-cyclohexyl-5-{[(pyridin-2-ylmethyl)carbamoyl]methyl}-6,7-dihydro-5H-benzo[5,6][1,4]diazepino[7,1-a]indole-10-carboxylic acid dihydrochloride]	> 7.00
O=C(O)c1ccc2c(C3CCCCC3)c3n(c2c1)CCN(CCNCc1ccccn1)c1ccccc1-3 [Example 1-34, 13-cyclohexyl-5-{2-[(pyridin-2-ylmethyl)amino]ethyl}-6,7-dihydro-5H-benzo[5,6][1,4]diazepino[7,1-a]indole-10-carboxylic acid trihydrochloride]	> 7.00
O=C(O)c1ccc2c(C3CCCCC3)c3n(c2c1)CCN(CC(=O)N1CCC(O)CC1)c1ccccc1-3 [Example 1-35, 13-cyclohexyl-5-[2-(4-hydroxypiperidin-1-yl)-2-oxoethyl]-6,7-dihydro-5H-benzo[5,6][1,4]diazepino[7,1-a]indole-10-carboxylic acid monohydrochloride]	> 7.00
COC1CCN(C(=O)CN2CCn3c(c(C4CCCCC4)c4ccc(C(=O)O)cc43)-c3ccccc32)CC1 [Example 1-36, 13-cyclohexyl-5-[2-(4-methoxypiperidin-1-yl)-2-oxoethyl]-6,7-dihydro-5H-benzo[5,6][1,4]diazepino[7,1-a]indole-10-carboxylic acid monohydrochloride]	> 7.00
COCCN(C)C(=O)CN1CCn2c(c(C3CCCCC3)c3ccc(C(=O)O)cc32)-c2ccccc21 [Example 1-37, 13-cyclohexyl-5-{[N-(2-methoxyethyl)-N-methylcarbamoyl]methyl}-6,7-dihydro-5H-benzo[5,6][1,4]diazepino[7,1-a]indole-10-carboxylic acid monohydrochloride]	> 7.00
